{
  "source": "paper PMC8468039",
  "about": "“Development of New Meridianin/Leucettine-Derived Hybrid Small Molecules as Nanomolar Multi-Kinase Inhibitors with Antitumor Activity” (Biomedicines, 2021)",
  "origin": "cited, not measured here",
  "conditions_in_all_cases": "cited from earlier work",
  "key": {"DYRK-2": {"tested_on": "DYRK-2", "parameters": "method as in PMID 21615147, PMID 19879673, PMID 22998443"}, "DYRK-1A": {"tested_on": "DYRK-1A", "parameters": "method as in PMID 21615147, PMID 19879673, PMID 22998443"}, "CLK-1": {"tested_on": "CLK-1", "parameters": "method as in PMID 21615147, PMID 19879673, PMID 22998443"}, "CLK-3": {"tested_on": "CLK-3", "parameters": "method as in PMID 8383730, PMID 21615147, PMID 19879673, PMID 22998443"}},
  "note": "pIC50: −log10 of the molar value.",
  "data": [
    {"smiles": "CN1C(=O)/C(=C/c2ccc3c(c2)OCO3)N=C1N", "note": "[leucettamine B, Leucettamine B]", "values": [
      {"measurement": "pIC50", "setting": "DYRK-2", "value": 5.82},
      {"measurement": "pIC50", "setting": "DYRK-1A", "value": 5.55},
      {"measurement": "pIC50", "setting": "CLK-1", "value": 6.40},
      {"measurement": "pIC50", "setting": "CLK-3", "value": 5.19}
    ]}
  ]
}
